This passage reports TGI and GI50 results from PubChem BioAssay (NCI).

The structures appear in SMILES notation. Values joined by “and” are separate entries in the source; they are usually repeats but may differ in a detail not shown here. Identical values can stand only once.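 A five-concentration, 48-hour dose response in 96-well plates underlies each endpoint, interpolated linearly between surrounding concentrations. Abbreviation: GI50, concentration required for 50% inhibition of growth. TGI marks complete inhibition of growth.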

Some test systems named below: SK-MEL-2 melanoma; HCC-2998 colon; DLD-1 colon; OVCAR-3 ovarian; SK-MEL-28 melanoma; M19-MEL melanoma; UACC-62 melanoma; SK-OV-3 ovarian; SR leukemia; T-47D breast.
Experiment in all cases: NCI tumour cell line growth inhibition, 48 h

In the case of `N#CN/C(N)=N/CO`, the TGI in the experiment with SK-MEL-2 melanoma is greater than 100 µM; with HCC-2998 colon, greater than 100 µM; in the experiment with DLD-1 colon, greater than 87.8 µM; with OVCAR-3 ovarian, greater than 100 µM; in the experiment with SK-MEL-28 melanoma, greater than 100 µM; in the experiment on M19-MEL melanoma, greater than 100 µM. Further, the results for the TGI in the experiment with UACC-62 melanoma, in the experiment with SK-OV-3 ovarian and in the experiment on SR leukemia were greater than 100 µM, greater than 100 µM and 72.4 µM, respectively.
Regarding `CC(=O)CCn1ncc(Cl)c(Cl)c1=O`, the TGI with SK-MEL-2 melanoma amounted to 28.4 µM; in the experiment on HCC-2998 colon, 21.9 µM; with DLD-1 colon it was 29.9 µM; in the experiment with OVCAR-3 ovarian, 27.5 µM; with SK-MEL-28 melanoma, 27.2 µM; with M19-MEL melanoma it was 17.2 µM. Moreover, the TGI in the experiment with UACC-62 melanoma was 33.3 µM; in the experiment on SR leukemia it was 31.5 µM.
As to `CCCCOC(=O)CNC(=O)OC/C=C/C#CC#C/C=C/COC(=O)NCC(=O)OCCCC`, the GI50 with SK-MEL-2 melanoma, in the experiment on HCC-2998 colon, with DLD-1 colon, in the experiment on OVCAR-3 ovarian, in the experiment with SK-MEL-28 melanoma and in the experiment on M19-MEL melanoma was greater than 100 µM each time. Also, the GI50 in the experiment on UACC-62 melanoma and in the experiment with SK-OV-3 ovarian was greater than 100 µM in each case. Also, the TGI in the experiment on SK-MEL-2 melanoma, with HCC-2998 colon, in the experiment on DLD-1 colon, with OVCAR-3 ovarian, in the experiment with SK-MEL-28 melanoma and in the experiment on M19-MEL melanoma was greater than 100 µM in each case. For the same compound, the TGI in the experiment with UACC-62 melanoma is greater than 100 µM; in the experiment with SK-OV-3 ovarian it was greater than 100 µM; in the experiment on SR leukemia, greater than 10 µM.
On to `COC(=O)C[C@](O)(CCCC(C)(C)O)C(=O)O[C@@H]1C(OC)=C[C@]23CCCN2CCc2cc4c(cc2[C@H]13)OCO4`, for which the GI50 was 0.0455 µM in the experiment on SK-MEL-2 melanoma; 0.0137 µM in the experiment on HCC-2998 colon; 0.0297 µM in the experiment on T-47D breast; 0.251 µM and 0.0286 µM in the experiment on OVCAR-3 ovarian; 0.0222 µM in the experiment on SK-MEL-28 melanoma; 0.03 µM with UACC-62 melanoma. The GI50 with SK-OV-3 ovarian was 0.0284 µM. The TGI in the experiment with SK-MEL-2 melanoma is 0.994 µM and 0.198 µM; in the experiment with HCC-2998 colon it was 0.246 µM and 0.0428 µM; in the experiment on DLD-1 colon it was 0.228 µM; in the experiment with M19-MEL melanoma, 0.0866 µM; in the experiment on UACC-62 melanoma it was 0.712 µM and 0.137 µM; with SK-OV-3 ovarian, 1.82 µM and 0.395 µM. The TGI in the experiment on SR leukemia was determined as 0.751 µM.
As for `O=C(CCN(C(=O)O)S(=O)(=O)c1ccc(NC(=O)c2ccccc2)cc1)Nc1ccccc1`, the TGI in the experiment on SK-MEL-2 melanoma, with HCC-2998 colon, in the experiment on DLD-1 colon, with OVCAR-3 ovarian, in the experiment on SK-MEL-28 melanoma and with M19-MEL melanoma was greater than 100 µM in each case. Besides, the TGI in the experiment on UACC-62 melanoma was 97.5 µM; in the experiment on SK-OV-3 ovarian it was greater than 100 µM; with SR leukemia it was greater than 100 µM.
Turning to `CN(C)CCNC(=O)c1cccc2ccc(-c3ccc(O)cc3)nc12`, the TGI in the experiment with SK-MEL-2 melanoma was 15.9 µM and 9.73 µM; in the experiment on HCC-2998 colon, 17.5 µM and 14.1 µM; in the experiment on T-47D breast it was 6.98 µM; in the experiment with DLD-1 colon it was 28 µM and 13.4 µM; with OVCAR-3 ovarian, 15.2 µM and 15.9 µM; with SK-MEL-28 melanoma, 11.8 µM and 16.2 µM. Also, the TGI with M19-MEL melanoma is 7.04 µM and 6.83 µM; in the experiment with UACC-62 melanoma it was 3.16 µM and 3.83 µM; in the experiment on SK-OV-3 ovarian it was 15.7 µM and 9.75 µM; in the experiment with SR leukemia it was 15.7 µM. Besides, the GI50 was 1.87 µM in the experiment with HCC-2998 colon; 2.07 µM in the experiment on DLD-1 colon; 4.14 µM with SK-MEL-28 melanoma; 2.12 µM in the experiment on M19-MEL melanoma; 1.6 µM in the experiment on UACC-62 melanoma.
On to `CC(C)C(CCl)NC(=O)c1cccc(C(=O)N[C@H](CCl)C(C)C)n1` (stereo in doubt), for which the TGI with HCC-2998 colon, in the experiment on DLD-1 colon, in the experiment on OVCAR-3 ovarian, in the experiment on SK-MEL-28 melanoma, in the experiment with M19-MEL melanoma and in the experiment with SK-OV-3 ovarian was greater than 100 µM in each case. The compound also returned a TGI with SR leukemia greater than 100 µM.
As to `NC(=S)N/N=C(\CC1OC(=O)c2ccccc21)c1ccc(Cl)cc1` (stereo not drawn), the TGI in the experiment on HCC-2998 colon is 48.6 µM; in the experiment on DLD-1 colon, greater than 100 µM; in the experiment on OVCAR-3 ovarian it was greater than 100 µM; with SK-MEL-28 melanoma it was greater than 100 µM; in the experiment with M19-MEL melanoma, 66.1 µM; with UACC-62 melanoma, 47.2 µM. In addition, the TGI with SK-OV-3 ovarian and with SR leukemia was greater than 100 µM in each case.
With `COc1cccc2c1C(=O)c1c(O)c3c(c(O)c1C2=O)C[C@@](O)(C(=O)CO)C[C@@H]3OC1CC(N)CC(C)O1` (stereo partly drawn), the GI50 is 0.125 µM and 0.0769 µM in the experiment on SK-MEL-2 melanoma; 0.117 µM in the experiment on HCC-2998 colon; 0.067 µM with T-47D breast; 0.127 µM in the experiment with DLD-1 colon; 0.102 µM in the experiment with OVCAR-3 ovarian; 0.135 µM and 0.0938 µM in the experiment with SK-MEL-28 melanoma. Besides, the GI50 in the experiment with M19-MEL melanoma is 0.0363 µM; in the experiment with UACC-62 melanoma, 0.0308 µM; in the experiment with SK-OV-3 ovarian, 0.0837 µM; with SR leukemia, 0.00548 µM and 0.02 µM. The TGI in the experiment on SK-MEL-2 melanoma was 0.315 µM and 0.22 µM; in the experiment on HCC-2998 colon it was 0.429 µM and 0.619 µM; in the experiment on T-47D breast it was 1.13 µM and 0.696 µM; in the experiment on DLD-1 colon, 1.18 µM and 2.67 µM; in the experiment on OVCAR-3 ovarian, 1.11 µM and 1.22 µM; in the experiment on SK-MEL-28 melanoma, 0.325 µM and 0.477 µM. Moreover, the TGI with M19-MEL melanoma is 0.186 µM and 0.174 µM; in the experiment with UACC-62 melanoma, 0.148 µM and 0.0691 µM; with SK-OV-3 ovarian, 0.94 µM and 3.52 µM; with SR leukemia it was 0.492 µM and 0.632 µM.
Regarding `CCOC(=O)c1cnc2c(ccc3[nH]n(C)nc32)c1=O`, the TGI is 46.1 µM in the experiment on SK-MEL-2 melanoma; greater than 100 µM with HCC-2998 colon; greater than 100 µM in the experiment on DLD-1 colon; greater than 100 µM in the experiment on OVCAR-3 ovarian; greater than 100 µM with SK-MEL-28 melanoma; greater than 100 µM with M19-MEL melanoma. The TGI in the experiment with UACC-62 melanoma, in the experiment on SK-OV-3 ovarian and in the experiment on SR leukemia was greater than 100 µM each time.
For `CC1(C)COC(C2(C)C(=O)C=C(c3ccccc3)c3ccccc32)=N1` (stereo not drawn), the TGI in the experiment with SK-MEL-2 melanoma, in the experiment with DLD-1 colon, in the experiment with OVCAR-3 ovarian, in the experiment on SK-MEL-28 melanoma, in the experiment with M19-MEL melanoma and in the experiment on UACC-62 melanoma was greater than 100 µM throughout. The values for the TGI in the experiment with SK-OV-3 ovarian and in the experiment on SR leukemia were 47.9 µM and greater than 100 µM, respectively.
For the compound `CCN(CC)CCCN1CCc2c([nH]c3ccccc23)C1c1cccnc1` (stereo not drawn), the TGI in the experiment with SK-MEL-2 melanoma, in the experiment with HCC-2998 colon, in the experiment with DLD-1 colon, with OVCAR-3 ovarian, with SK-MEL-28 melanoma and in the experiment on M19-MEL melanoma was greater than 100 µM in each case. Further, the TGI in the experiment on UACC-62 melanoma, in the experiment on SK-OV-3 ovarian and with SR leukemia was greater than 100 µM in each case.
With `Cc1ccc(S(=O)(=O)N(C=O)N=C2CCN(Cc3ccccc3)CC2)cc1`, the TGI in the experiment on SK-MEL-2 melanoma, with HCC-2998 colon, in the experiment with DLD-1 colon, in the experiment on OVCAR-3 ovarian, with M19-MEL melanoma and in the experiment on UACC-62 melanoma was greater than 100 µM throughout. Also, the TGI in the experiment with SK-OV-3 ovarian and in the experiment with SR leukemia was greater than 100 µM in each case.
Consider `Nc1nc(Cl)cc(NCCCCCCCCNc2cc(Cl)nc(N)n2)n1`, for which the TGI in the experiment on SK-MEL-2 melanoma, with HCC-2998 colon, in the experiment on DLD-1 colon, in the experiment with OVCAR-3 ovarian, with SK-MEL-28 melanoma and with M19-MEL melanoma was greater than 100 µM throughout. Besides, the TGI is 95.3 µM in the experiment with UACC-62 melanoma, greater than 100 µM in the experiment on SK-OV-3 ovarian and 96.8 µM in the experiment on SR leukemia.
`O=[N+]([O-])c1cccc(C2=NN(c3ccccc3)C[N+](c3ccc(Br)cc3)=N2)c1`: the TGI in the experiment on SK-MEL-2 melanoma, in the experiment on HCC-2998 colon, with DLD-1 colon, in the experiment with SK-MEL-28 melanoma, in the experiment on M19-MEL melanoma and in the experiment with UACC-62 melanoma was greater than 100 µM each time. The TGI with SK-OV-3 ovarian was greater than 100 µM; in the experiment with SR leukemia, 16.9 µM.
